# Reference: the supplement of paper PMC10011410
# Tests used:
# U-2 OS [1] = test: relative cell count vs DMSO (cell painting) (fraction of DMSO control); higher = more cells remaining (less cytotoxic); settings: 24 h
# Experimental: (§1)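 Cell painting in U-2 OS cells (384-well, about 1,500 cells per well), compound exposure 24 h, usually six 2-fold concentrations from 20 to 0.625 uM (some compounds higher or lower). Relative cell count is the cell number per well relative to DMSO wells. Activity score is the Mahalanobis distance of the morphological profile from DMSO control wells. Mean of four technical replicate plates.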
# U-2 OS [2] = test: AUC of culture confluence over time (live-cell imaging) (AUC (confluence % x time)); higher = more confluent culture (less growth inhibition)
# Experimental: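 Live-cell Incucyte imaging of U-2 OS cells in F-12K medium. Compounds were tested mostly at 5, 10 and 20 uM, and cells were imaged every 4 h for up to 60 h. Value is the area under the curve of phase-contrast confluence over time.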
# U-2 OS [3] = test: cell painting activity score (Mahalanobis distance from DMSO wells); higher = stronger morphological phenotype; settings: 24 h
# Experimental: as §1
SMILES,relative cell count (U-2 OS [1]; 0.625 µM),relative cell count (U-2 OS [1]; 1.25 µM),relative cell count (U-2 OS [1]; 2.5 µM),relative cell count (U-2 OS [1]; 5 µM),relative cell count (U-2 OS [1]; 10 µM),relative cell count (U-2 OS [1]; 20 µM),AUC of culture confluence over time (U-2 OS [2]; 5 µM),AUC of culture confluence over time (U-2 OS [2]; 10 µM),AUC of culture confluence over time (U-2 OS [2]; 20 µM),cell painting activity score (U-2 OS [3]; 0.625 µM),cell painting activity score (U-2 OS [3]; 1.25 µM),cell painting activity score (U-2 OS [3]; 2.5 µM),cell painting activity score (U-2 OS [3]; 5 µM),cell painting activity score (U-2 OS [3]; 10 µM),cell painting activity score (U-2 OS [3]; 20 µM)
C/C(=C\c1csc(C)n1)[C@@H]1C[C@@H]2O[C@]2(C)CCC[C@H](C)[C@H](O)[C@@H](C)C(=O)C(C)(C)[C@@H](O)CC(=O)O1,0.22,0.223,0.284,0.468,0.553,0.521,21.8,21.4,21.2,21.1,20.7,22.7,22.5,23.6,23.9
C#CC[C@H](c1nc2cc(Cl)ccc2c(=O)n1Nc1ccccc1)N(CCCN)C(=O)c1cccc(Cl)c1F,0.999,0.984,0.903,0.401,0.198,0.0211,26.8,13.2,10.4,4.72,4.61,4.15,10.3,12.9,26.1
CNc1nc(-c2ccccc2)[n+](-c2ccccc2)s1,1,1.03,0.994,0.992,0.516,0.0974,36,44.4,42.5,2.89,2.97,3.6,3.74,6.88,14.5
C=C1[C@@H](C)[C@H]2[C@H](Cc3ccccc3)NC(=O)[C@]23[C@H](OC(C)=O)/C=C/[C@@](C)(O)C(=O)[C@@H](C)C/C=C/[C@H]3[C@@H]1O,0.575,0.517,0.557,0.623,0.562,0.494,24.3,26,27.2,14.5,15.6,16.1,17.4,18.8,19.2
CS(=O)(=O)OCCCCOS(C)(=O)=O,0.959,0.863,0.85,0.682,0.679,0.295,49.5,47.2,49.5,3.32,4.51,5.59,7.16,6.02,10
COC(=O)[C@@]12OC[C@]34[C@H]([C@@H](O)[C@@H]1O)[C@@]1(C)CC(=O)C(O)=C(C)[C@@H]1C[C@H]3OC(=O)[C@H](OC(=O)CC(C)C)[C@@H]24,0.469,0.475,0.461,0.47,0.397,0.365,14.4,12.2,13.9,15.1,15.9,16.9,17.5,18.1,17.9
C[C@H]1O[C@@H](O[C@H]2CC[C@@]3(C)[C@@H](CC[C@]4(C)[C@@H]3C=C[C@]35OC[C@@]6(CCC(C)(C)C[C@H]63)[C@@H](O)C[C@]54C)[C@]2(C)CO)[C@H](O)[C@@H](O[C@@H]2O[C@H](CO)[C@@H](O)[C@H](O)[C@H]2O)[C@H]1O,0.96,0.765,0.155,0.3,0.0734,0.0918,35.7,16.7,15.5,5.15,6.79,10.6,9.69,27.5,29.4
CC(C)(C)C(=O)OCOc1cccc2ccccc12,1.01,0.983,0.997,0.97,0.974,1.01,45.5,44.2,46.3,4.69,4.3,6.34,5.83,8.37,7.3
